Results as given in publication PMC9486168, “Protein-protein interaction-based high throughput screening for adenylyl cyclase 1 inhibitors: Design, implementation, and discovery of a novel chemotype” (Frontiers in Pharmacology, 2022).
Read-outs that look alike come from different tables or passages of the source.

How the values were obtained:
AC8/CaM PPI = biological target: T1, AC8/CaM PPI (Homo sapiens, UniProt P0DP23); assay: AC8/CaM NanoBiT assay in HEK293T cells; format: cell-based, rat
T1 construct: confirmed as an AC1/AC8 non-selective hit against full-length AC1- and AC8-CaM in the NanoBiT assay; The hCaM residues 1–149, residues 1–1,248 of rat AC8 (rAC8); expressed in transfected cells; host or cells: HEK293T, transient transfection

AC1/CaM PPI = biological target: T2, AC1/CaM PPI (Homo sapiens, UniProt P0DP23); assay: AC1/CaM NanoBiT assay in HEK293T cells; format: cell-based
T2 construct: human AC1 (hAC1) residues 1–1,118 were cloned; The hCaM residues 1–149, residues 1–1,248 of rat AC8 (rAC8); expressed in transfected cells; host or cells: HEK293T, transient transfection

AC8-Nt/CaM = biological target: T3, AC8-Nt/CaM (Homo sapiens, UniProt P0DP23); assay: AC8-Nt/CaM FP counterscreen assay; format: binding;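 also: fluorescence polarization of AC peptide binding GST-CaM in HEPES buffer with CaCl2, compound preincubated with CaM 30 min, peptide read after 2 h at room temperature in dark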
T3 construct: made in house; host or cells: E. coli BL21-CodonPlus (DE3)-RIPL

AC1-C1b/CaM = biological target: T4, AC1-C1b/CaM (Homo sapiens, UniProt P0DP23); assay: AC1-C1b/CaM fluorescence polarization (FP) assay; format: binding
T4 construct: made in house; host or cells: E. coli BL21-CodonPlus (DE3)-RIPL

AC2 = biological target: T5, AC2 (Homo sapiens, UniProt Q08462); assay: cAMP accumulation assay, AC2-HEK Δ3/6 KO cells; format: cell-based; details: read-out: % Inhibited at AC2 ± SEM
T5 construct: expressed in transfected cells
Experimental: (§1) Cryopreserved HEK293 cells with AC3 and AC6 knocked out, and stably expressing AC1, AC2, AC5, or AC8 (AC1-HEK Δ3/6 KO, AC2-HEK Δ3/6 KO, AC5-HEK Δ3/6 KO, or AC8-HEK Δ3/6 KO cells, respectively; [Soto-Velasquez et al., 2018]) were plated at 5,000 cells/well. Cells were then incubated for 1 h at 37°C and 5% CO2. Cells were then treated with varying concentrations of inhibitors for 30 min, followed by treatment with calcium ionophore A23187 (3 μM) in 500 μM 3-isobutyl-1-methylxanthine (IBMX), a phosphodiesterase inhibitor, for 1 h at RT (Sigma Aldrich, St. Louis, MO). Finally, Cisbio HTRF detection reagents were added and incubated for 1–24 h at RT. Plates were read according to manufacturer’s protocol on an HTRF-compatible plate reader at 620 and 665 nm cAMP concentrations were interpolated from a cAMP standard curve. […] For cytotoxicity assays, compounds were tested at 30 μM and this protocol was used with the exception of detection reagents; CellTiter-Glo 2.0 reagent was used according to manufacturer’s protocol and luminescence was read on the Synergy Neo2 plate reader. Data are normalized to cells treated with vehicle (100%) or 2% tween (0%) and are represented as the percent of vehicle, from the average of three independent experiments (N = 3).

CaM = biological target: T6, CaM (Homo sapiens, UniProt P0DP23); assay: 1H-15N HSQC NMR of 15N-CaM with compound; format: binding; details: 5 equivalent molar excess over 100 μM CaM
T6 construct: 6X-His-GST (N, cleaved yes); made in house; host or cells: E. coli BL21-CodonPlus (DE3)-RIPL in M9 minimal media with 15NH4Cl
Experimental: All NMR samples contained 100 μM ^15N-CaM in 20 mM HEPES pH 7.4, 100 mM KCl, 10 mM CaCl2, 10% D2O, and 5% DMSO. Initial spectra were collected for CaM alone before individual compounds were titrated to observe chemical shift perturbations. All spectra were acquired at 298 K using a 600 MHz Bruker Avance NEO NMR spectrometer with a triple resonance gradient cryoprobe. NMR spectra were processed using NMRPipe and analyzed using NMRFAM-SPARKY.

AC5 = biological target: T7, AC5 (Homo sapiens, UniProt O95622); assay: cAMP accumulation assay, AC5-HEK Δ3/6 KO cells; format: cell-based; details: read-out: % Inhibited at AC5 ± SEM
T7 construct: expressed in transfected cells
Experimental: as §1

[1] = CellTiter-Glo 2.0 cell viability assay; format: cell-based; details: human, HEK293T cells, pH 7.4; at the compound's AC1/CaM NanoBiT IC50 concentration; read-out: % Viable Cells at AC1 IC50;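 also: luminescence read-out after 30 min compound exposure at 37 °C in HEPES-buffered HBSS, scaled to vehicle-treated cells as 100% and cell-free buffer wells as 0%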
HEK293T cells = assay: CellTiter-Glo 2.0 cell viability assay; format: cell-based; details: ∼300 μM;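 also: luminescence read-out after 30 min compound exposure at 37 °C in HEPES-buffered HBSS, scaled to vehicle-treated cells as 100% and cell-free buffer wells as 0%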
AC8 = biological target: T8, AC8 (Homo sapiens, UniProt P40145); assay: cAMP accumulation assay, AC8-HEK Δ3/6 KO cells; format: cell-based; details: CDI analog SAR set, 3 μM A23187; read-out: IC50 (μM) ± SEM AC8
T8 construct: expressed in transfected cells
Experimental: as §1

AC1 = biological target: T9, AC1 (Homo sapiens, UniProt Q08828); assay: cAMP accumulation assay, AC1-HEK Δ3/6 KO cells; format: cell-based
T9 construct: expressed in transfected cells
Experimental: as §1, with “Cells” for “Cryopreserved HEK293 cells with AC3 and AC6 knocked out, and stably expressing AC1, AC2, AC5, or AC8 (AC1-HEK Δ3/6 KO, AC2-HEK Δ3/6 KO, AC5-HEK Δ3/6 KO, or AC8-HEK Δ3/6 KO cells, respectively; [Soto-Velasquez et al., 2018]) were plated at 5,000 cells/well. Cells”

[2] = Cytotoxicity assay (CellTiter-Glo 2.0) in AC1-HEK Δ3/6 KO cells; format: cell-based; details: human, percent of vehicle, read-out: % Viable Cells at AC1 30 μM
Experimental: as §1

AC8-C2b/CaM = biological target: T10, AC8-C2b/CaM (Homo sapiens, UniProt P0DP23); assay: AC8-C2b/CaM FP counterscreen assay; format: binding;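 also: fluorescence polarization of AC peptide binding to GST-CaM in HEPES buffer with KCl and 50 µM CaCl2, compound preincubated 30 min with GST-CaM, DMSO and calmidazolium as controls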
T10 construct: made in house; host or cells: E. coli BL21-CodonPlus (DE3)-RIPL

[3] = Cheng-Prusoff from FP IC50 and Kd, n/i given where none
[4] = ratio >1: more potent in AC1/CaM FP

T9 sequence (Q08828 whole entry): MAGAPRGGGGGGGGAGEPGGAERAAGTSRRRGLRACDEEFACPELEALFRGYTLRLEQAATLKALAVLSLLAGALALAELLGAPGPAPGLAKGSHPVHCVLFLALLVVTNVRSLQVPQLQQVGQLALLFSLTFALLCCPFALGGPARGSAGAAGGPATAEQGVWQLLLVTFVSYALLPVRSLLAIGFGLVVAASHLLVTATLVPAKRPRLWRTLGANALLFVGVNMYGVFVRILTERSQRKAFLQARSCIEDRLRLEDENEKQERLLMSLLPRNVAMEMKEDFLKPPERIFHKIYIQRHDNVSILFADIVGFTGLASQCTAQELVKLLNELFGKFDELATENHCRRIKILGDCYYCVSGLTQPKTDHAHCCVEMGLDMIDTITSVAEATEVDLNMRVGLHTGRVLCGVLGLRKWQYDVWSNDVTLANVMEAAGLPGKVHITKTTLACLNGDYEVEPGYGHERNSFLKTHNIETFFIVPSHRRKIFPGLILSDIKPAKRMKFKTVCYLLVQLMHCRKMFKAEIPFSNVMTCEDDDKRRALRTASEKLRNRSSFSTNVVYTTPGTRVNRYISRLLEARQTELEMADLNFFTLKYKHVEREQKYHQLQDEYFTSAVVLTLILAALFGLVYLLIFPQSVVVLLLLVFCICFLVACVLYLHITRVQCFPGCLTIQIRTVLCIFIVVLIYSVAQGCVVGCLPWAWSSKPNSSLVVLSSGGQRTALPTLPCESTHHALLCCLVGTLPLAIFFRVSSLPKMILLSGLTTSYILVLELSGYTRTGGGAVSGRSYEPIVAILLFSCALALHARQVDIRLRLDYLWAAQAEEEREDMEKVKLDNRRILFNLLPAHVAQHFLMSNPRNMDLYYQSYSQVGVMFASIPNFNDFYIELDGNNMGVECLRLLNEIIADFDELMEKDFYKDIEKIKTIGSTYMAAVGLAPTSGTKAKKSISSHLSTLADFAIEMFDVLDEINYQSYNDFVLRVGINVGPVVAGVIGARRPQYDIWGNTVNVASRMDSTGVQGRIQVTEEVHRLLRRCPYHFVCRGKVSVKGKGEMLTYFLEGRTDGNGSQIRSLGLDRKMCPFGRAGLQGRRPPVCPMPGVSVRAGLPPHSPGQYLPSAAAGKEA
T5 sequence (Q08462 whole entry): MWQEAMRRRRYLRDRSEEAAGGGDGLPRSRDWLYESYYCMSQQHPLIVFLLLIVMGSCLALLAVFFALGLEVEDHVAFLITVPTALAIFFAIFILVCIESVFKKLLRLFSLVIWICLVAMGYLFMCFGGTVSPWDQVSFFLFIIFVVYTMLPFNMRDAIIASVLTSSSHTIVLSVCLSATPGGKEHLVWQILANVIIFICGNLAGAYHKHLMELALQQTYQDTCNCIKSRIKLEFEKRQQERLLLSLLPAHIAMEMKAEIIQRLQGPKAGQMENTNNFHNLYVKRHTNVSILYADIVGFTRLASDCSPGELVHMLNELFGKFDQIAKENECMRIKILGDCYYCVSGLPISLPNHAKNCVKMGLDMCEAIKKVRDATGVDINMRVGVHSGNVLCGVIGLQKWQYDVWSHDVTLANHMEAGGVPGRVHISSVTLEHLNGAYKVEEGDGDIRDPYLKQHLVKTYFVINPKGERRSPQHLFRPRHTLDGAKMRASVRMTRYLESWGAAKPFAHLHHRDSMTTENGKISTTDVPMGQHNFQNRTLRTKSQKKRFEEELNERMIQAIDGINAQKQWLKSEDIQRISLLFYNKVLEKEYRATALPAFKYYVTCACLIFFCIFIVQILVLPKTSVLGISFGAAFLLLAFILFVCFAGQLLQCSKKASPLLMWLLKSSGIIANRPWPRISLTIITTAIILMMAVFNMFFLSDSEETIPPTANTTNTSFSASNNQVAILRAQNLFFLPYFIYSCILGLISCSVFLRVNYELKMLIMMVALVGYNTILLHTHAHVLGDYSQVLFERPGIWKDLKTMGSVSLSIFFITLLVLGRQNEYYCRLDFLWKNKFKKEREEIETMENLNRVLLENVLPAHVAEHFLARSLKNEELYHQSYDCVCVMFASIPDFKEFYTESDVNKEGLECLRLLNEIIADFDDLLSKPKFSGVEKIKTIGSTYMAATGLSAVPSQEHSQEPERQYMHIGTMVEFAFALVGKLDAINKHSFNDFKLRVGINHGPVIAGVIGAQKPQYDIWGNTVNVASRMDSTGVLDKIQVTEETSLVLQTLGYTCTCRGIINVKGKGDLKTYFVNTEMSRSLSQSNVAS
T8 sequence (P40145 whole entry, species assumed): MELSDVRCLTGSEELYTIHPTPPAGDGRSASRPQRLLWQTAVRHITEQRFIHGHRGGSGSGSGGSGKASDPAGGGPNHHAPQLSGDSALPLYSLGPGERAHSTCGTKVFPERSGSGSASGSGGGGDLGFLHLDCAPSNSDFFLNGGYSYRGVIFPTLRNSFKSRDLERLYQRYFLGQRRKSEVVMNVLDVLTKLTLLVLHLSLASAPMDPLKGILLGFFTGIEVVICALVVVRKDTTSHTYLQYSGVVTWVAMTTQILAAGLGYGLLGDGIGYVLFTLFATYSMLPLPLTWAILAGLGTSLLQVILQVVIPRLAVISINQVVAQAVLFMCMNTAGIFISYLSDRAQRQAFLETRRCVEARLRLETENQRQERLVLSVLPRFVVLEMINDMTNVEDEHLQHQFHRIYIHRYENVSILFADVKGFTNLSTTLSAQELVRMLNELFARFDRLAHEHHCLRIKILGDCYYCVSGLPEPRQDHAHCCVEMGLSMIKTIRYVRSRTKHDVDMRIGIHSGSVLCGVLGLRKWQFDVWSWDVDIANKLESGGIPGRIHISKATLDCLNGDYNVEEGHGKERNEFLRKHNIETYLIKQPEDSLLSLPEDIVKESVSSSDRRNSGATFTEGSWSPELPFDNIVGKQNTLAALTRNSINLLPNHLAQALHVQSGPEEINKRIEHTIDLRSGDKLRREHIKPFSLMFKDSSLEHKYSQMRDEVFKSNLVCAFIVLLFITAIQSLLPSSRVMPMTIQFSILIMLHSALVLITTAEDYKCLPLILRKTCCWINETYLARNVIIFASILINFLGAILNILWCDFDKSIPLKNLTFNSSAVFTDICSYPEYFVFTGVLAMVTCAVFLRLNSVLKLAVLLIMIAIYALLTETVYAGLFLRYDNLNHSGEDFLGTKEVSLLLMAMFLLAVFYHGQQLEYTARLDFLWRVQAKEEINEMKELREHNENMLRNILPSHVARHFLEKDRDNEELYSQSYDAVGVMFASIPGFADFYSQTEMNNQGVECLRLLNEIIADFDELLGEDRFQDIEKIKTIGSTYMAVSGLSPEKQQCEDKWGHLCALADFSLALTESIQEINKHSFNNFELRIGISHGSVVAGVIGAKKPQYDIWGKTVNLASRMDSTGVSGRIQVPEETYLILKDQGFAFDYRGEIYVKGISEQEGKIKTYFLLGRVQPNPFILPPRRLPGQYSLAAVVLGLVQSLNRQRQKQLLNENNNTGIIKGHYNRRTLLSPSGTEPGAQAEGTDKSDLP
T7 sequence (O95622 whole entry, species assumed): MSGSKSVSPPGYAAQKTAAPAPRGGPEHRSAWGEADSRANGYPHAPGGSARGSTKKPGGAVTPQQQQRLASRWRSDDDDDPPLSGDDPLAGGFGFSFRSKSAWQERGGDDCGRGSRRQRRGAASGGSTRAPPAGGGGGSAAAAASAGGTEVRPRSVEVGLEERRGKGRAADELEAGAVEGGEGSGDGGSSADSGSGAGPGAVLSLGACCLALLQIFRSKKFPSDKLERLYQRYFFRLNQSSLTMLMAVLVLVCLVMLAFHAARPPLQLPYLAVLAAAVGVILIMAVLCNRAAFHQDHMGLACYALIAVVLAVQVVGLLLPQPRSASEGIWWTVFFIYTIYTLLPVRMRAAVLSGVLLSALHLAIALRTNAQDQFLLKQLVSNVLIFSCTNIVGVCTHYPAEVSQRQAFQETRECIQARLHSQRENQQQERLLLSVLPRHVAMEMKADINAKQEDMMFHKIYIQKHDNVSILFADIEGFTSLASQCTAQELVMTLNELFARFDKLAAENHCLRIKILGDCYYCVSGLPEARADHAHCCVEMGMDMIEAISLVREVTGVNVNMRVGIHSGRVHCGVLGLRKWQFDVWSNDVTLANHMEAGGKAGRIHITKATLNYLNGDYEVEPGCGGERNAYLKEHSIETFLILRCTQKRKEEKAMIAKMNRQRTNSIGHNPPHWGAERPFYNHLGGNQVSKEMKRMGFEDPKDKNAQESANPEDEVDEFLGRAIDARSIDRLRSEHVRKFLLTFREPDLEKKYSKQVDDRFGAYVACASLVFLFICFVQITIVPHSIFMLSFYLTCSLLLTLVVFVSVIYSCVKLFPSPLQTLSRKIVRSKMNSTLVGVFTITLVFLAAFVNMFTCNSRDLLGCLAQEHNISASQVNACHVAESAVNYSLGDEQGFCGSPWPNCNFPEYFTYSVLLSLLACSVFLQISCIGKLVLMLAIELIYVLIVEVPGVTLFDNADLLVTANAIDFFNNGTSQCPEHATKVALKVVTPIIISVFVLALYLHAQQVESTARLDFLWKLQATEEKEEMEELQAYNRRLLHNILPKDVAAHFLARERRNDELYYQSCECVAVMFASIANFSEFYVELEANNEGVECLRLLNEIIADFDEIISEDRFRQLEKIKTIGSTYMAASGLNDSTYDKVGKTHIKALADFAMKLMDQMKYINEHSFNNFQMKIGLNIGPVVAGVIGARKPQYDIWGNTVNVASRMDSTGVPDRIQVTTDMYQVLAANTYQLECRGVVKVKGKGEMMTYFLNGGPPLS

With `CCc1cc(C(c2cccs2)N2CCN(C)CC2)c(NC(=O)c2ccco2)s1` (stereo not shown) [Compound 15] the IC50 (AC8/CaM PPI; HEK293T, thapsigargin-stimulated, AUC, read-out: Nanobit: AC8-CaM IC50 (μM ± SEM)) was 33.3 ± 1.18 µM, the “inhibition of AC8-CaM interaction in NanoBiT” value (AC8/CaM PPI; full-length proteins) was 100% and the IC50 (AC1/CaM PPI; HEK293T, thapsigargin-stimulated, AUC, read-out: Nanobit: AC1-CaM IC50 (μM ± SEM)) was 26.1 ± 1.17 µM. For the same compound, the “inhibition of AC1-CaM interaction in NanoBiT” value (AC1/CaM PPI; full-length proteins) was 100%, the “Ki (μM) AC8 NT” value (AC8-Nt/CaM; [3]) was “n/i” and the “Ki ratio (AC8 NT/AC1)” value (AC8-Nt/CaM; [4]) was “AC1 Selective”. The IC50 (AC1-C1b/CaM; 100 nM AC1-C1b, 100 nM GST-CaM, 95% CI in brackets) was 22.1 µM, the Ki (AC1-C1b/CaM; Cheng-Prusoff from FP IC50 and Kd) was 5.2 µM and the “AC1-CaM FP % inhib” value (AC1-C1b/CaM; relative to 100 μM CDZ (100% inhibition), highest concentration tested) was 58%. The inhibition at 30 µM (AC2) was 59 ± 14%, the “chemical shift perturbations (CSP) of 15N-CaM” value (CaM) was “several peaks were broadened by intermediate exchange and disappeared” and the inhibition at 30 µM (AC5) was 47 ± 10%. The viability at 30 min [1] was 100%, the “cell viability at ∼300 μM” value (HEK293T cells) was “decrease in cell viability” and the IC50 (AC8) was 3.9 ± 1.83 µM. The IC50 (AC1; CDI analog SAR set, 3 μM A23187, read-out: IC50 (μM) ± SEM AC1) was 4.36 ± 0.32 µM, the “inhibition of AC1 activity” value (AC1; CDI analog set, maximal inhibition of A23187 response) was 100% and the “inhibition of AC1 activity (efficacy)” value (AC1; initial characterization of hits, data not shown) was roughly 75%. The IC50 (AC1; initial examination, 10,000 cells per well, 3 μM A23187, 1 h RT, read-out: AC1 IC50 ± SEM) was 4.88 ± 2.14 µM, the viability at 30 min, 30 μM [2] was 43% and the “Ki (μM) AC8 C2b” value (AC8-C2b/CaM; [3]) was “n/i”. For the same compound, the “Ki ratio (AC8-C2b/AC1)” value (AC8-C2b/CaM; [4]) was “AC1 Selective”.
